Source: PMC3896228, “Physalin H from Solanum nigrum as an Hh signaling inhibitor blocks GLI1–DNA-complex formation” (Beilstein Journal of Organic Chemistry, 2014)
Read-outs that look alike come from different tables or passages of the source.

How the values were obtained:
[1] = test system: GLI1 transcriptional activity; conditions: cited from earlier work
[2] = test system: GLI1 transcriptional activity; assay: cells; format: cell-based; conditions: for IC50: read-out: GLI1 transcriptional inhibition, IC50
Excerpt: In addition, we evaluated the Hh inhibitory activity by assessing the cytotoxicity against cancer cells and the expression of Hh-related proteins.
(§1) We evaluated the Hh inhibitory activity of the isolated compounds by using a previously described method. […] In addition we always checked the cytotoxicity of the compounds against the assay cells, because a decrease in the number of living cells also correlates with a reduced luciferase activity. […] Further, we examined the cytotoxicity against cancer cells, human pancreatic (PANC1) and prostate (DU145) cancer cell lines, in which Hh signaling is aberrantly activated (Table 1).
(§2) The NMR measurements were carried out with JEOL ECP400 and ECP600 spectrometers in deuterated solvents and the residual proton chemical shift was taken as an internal standard. MS data were obtained with a JEOL JMS-T100LP (ESI). IR spectra were measured by using the ATR (attenuated total reflection) method on a Jasco FT-IR 230 spectrophotometer. […] The procedures for the GLI1-mediated transcriptional activity assay, Western blot analysis and cytotoxicity test were as previously described. The GST–GLI1 protein was produced as previously described.

PANC1 [3] = assay: Cytotoxicity test against PANC1; format: cell-based; conditions: Homo sapiens, PANC-1
Excerpt: (§3) […]. […] […]. […] […].

DU145 = assay: Cytotoxicity test against DU145; format: cell-based
Excerpt: as §3

[4] = Cytotoxicity test against C3H10T1/2 normal cells; format: cell-based; conditions: mouse, C3H10T1/2 cells (normal cell line)
Excerpt: as §3

C3H10T1/2 [5] = assay: Cytotoxicity test against C3H10T1/2 normal cells; format: cell-based; conditions: normal cell line
Excerpt: as §3

[6] = test system: assay cells (HaCaT cells expressing exogenous GLI1); assay: Cytotoxicity against reporter assay cells (cell viability)
Excerpt: as §1, §2

[7] = target: T1, GLI1–DNA complex (GST–GLI1 171-515aa, GLI1–BS) (Homo sapiens, UniProt P08151); format: binding; conditions: EMSA, 200 μM
T1 construct: GST–GLI1 (171-515aa); made in house; host or cells: Escherichia coli
T1 sequence (P08151 171-515): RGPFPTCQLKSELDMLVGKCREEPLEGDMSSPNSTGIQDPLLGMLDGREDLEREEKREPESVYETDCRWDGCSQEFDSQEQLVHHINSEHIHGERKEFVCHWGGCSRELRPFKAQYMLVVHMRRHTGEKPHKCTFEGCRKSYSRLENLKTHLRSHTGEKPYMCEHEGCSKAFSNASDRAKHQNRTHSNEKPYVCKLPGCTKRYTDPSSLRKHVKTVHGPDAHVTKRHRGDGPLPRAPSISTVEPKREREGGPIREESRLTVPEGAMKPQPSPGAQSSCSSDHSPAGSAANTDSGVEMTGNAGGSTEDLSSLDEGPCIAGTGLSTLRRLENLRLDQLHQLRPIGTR

PTCH [8] = assay: Western blot analysis of PTCH in GLI1-overexpressing HaCaT cells; format: cell-based; conditions: 3.0 μM, HaCaT cells expressing exogenous GLI1, Western blot
Excerpt: as §3
(§4) Figure 4 Inhibition of protein expression by compound 1. (A) Western blot analysis of PTCH, BCL-2 protein levels in GLI1-overexpressing HaCaT cells after treatment with 1. (B) Western blot analysis of PTCH, BCL-2 protein levels in DU145 cells after treatment with 1.

BCL2 [9] = assay: Western blot analysis of BCL2 in GLI1-overexpressing HaCaT cells; format: cell-based; conditions: 3.0 μM, HaCaT cells expressing exogenous GLI1, Western blot
Excerpt: as §3, §4

PTCH [10] = assay: Western blot analysis of PTCH in DU145 cells; format: cell-based, human; conditions: 3.0 μM, DU145 cancer cells
Excerpt: as §3, §4

BCL2 [11] = assay: Western blot analysis of BCL2 in DU145 cells; format: cell-based, human; conditions: 3.0 μM, DU145 cancer cells
Excerpt: as §3, §4

PANC1 [12] = conditions: read-out: Cytotoxicity, IC50 PANC1; cited from earlier work
C3H10T1/2 [13] = conditions: cited from earlier work; for survival of C3H10T1/2 cells: normal cell line; for IC50: read-out: Cytotoxicity, IC50 C3H10T1/2, C3H10T1/2
[14] = read-out: GLI1 transcriptional inhibition, IC50
[15] = Homo sapiens, DU-145; read-out: Cytotoxicity, IC50 DU145

SMILES: CC12CC3OC(=O)C1COC14OC5(C2C1=O)C(O)(CCC1C4CC2OC24CC=CC(=O)C14C)C(=O)OC35C (centres unmarked) [physalin F (5]
- IC50 [1, 14]: 0.66 µM

SMILES: CC12C(=O)CC=CC1=CCC1C2CCC2(O)C(=O)OC3(C)C4CC5(C)C(COC16OC23C5C6=O)C(=O)O4 (centres unmarked) [isophysalin B (4), isophysalin B]
- IC50 [2]: 4.2 µM
- IC50 (PANC1 [3]): 12 µM
- IC50 (DU145; [15]): > 12 µM
- IC50 [4]: > 12 µM
- survival of C3H10T1/2 cells (C3H10T1/2 [5]): not significantly affected
- cytotoxicity against assay cells [6]: low cytotoxicity

SMILES: C[C@]12C(=O)C=CC=C1[C@@H](O)C[C@@H]1[C@@H]2CC[C@@]2(O)C(=O)O[C@@]3(C)[C@H]4C[C@]5(C)[C@@H](CO[C@@]16O[C@]23[C@H]5C6=O)C(=O)O4 [physalin G (2), physalin G]
- IC50 [2]: 47.1 µM
- IC50 (DU145; Homo sapiens, DU-145, read-out: Cytotoxicity, IC50 DU145): > 12 µM
- formation of GLI1–DNA complex [7]: did not inhibit

SMILES: CC12C(=O)C=CC=C1C(O)CC1C2CCC2(O)C(=O)OC3(C)C4CC5(C)C(COC16OC23C5C6=O)C(=O)O4 (centres unmarked) [physalin G (2]
- IC50 [2]: 47.1 µM

SMILES: COC(=O)[C@]1(C)CCC[C@]2(C)c3cc4occc4c(C)c3C[C@@H](OC(C)=O)[C@@H]12 [taepeenin D, reference compound]
- IC50 ([1]; read-out: Hh inhibition IC50): 1.6 µM

SMILES: CC12CC3OC(=O)C1COC14OC5(C2C1=O)C(O)(CCC1C4CC(O)C2(Cl)CC=CC(=O)C12C)C(=O)OC35C (centres unmarked) [physalin H (1), physalin H]
- IC50 (PANC1 [3]): 5.7 µM
- IC50 (DU145; [15]): 6.8 µM
- IC50 [4]: > 6 µM
- survival of C3H10T1/2 cells (C3H10T1/2 [5]): not significantly affected
- expression of PTCH (PTCH [8]): inhibited the expression
- expression of BCL2 (BCL2 [9]): inhibited the expression
- expression of PTCH (PTCH [10]): only slightly affected
- expression of BCL2 (BCL2 [11]): decreased the expression

SMILES: CC12CC3OC(=O)C1COC14OC5(C2C1=O)C(O)(CCC1C4CC(O)C24C=CC(OO2)C(=O)C14C)C(=O)OC35C (centres unmarked) [physalin K (3), physalin K]
- Hh inhibition [2]: did not show Hh inhibition at all

SMILES: C[C@@]12C[C@H]3OC(=O)[C@@H]1CO[C@]14O[C@]5([C@H]2C1=O)[C@@](O)(CC[C@H]1[C@H]4C[C@H]2O[C@]24CC=CC(=O)[C@]14C)C(=O)O[C@@]35C [physalin F (5), physalin F]
- IC50 [1, 14]: 0.66 µM
- IC50 (PANC1 [12]): 2.7 µM
- survival of C3H10T1/2 cells (C3H10T1/2 [13]): not significantly affected
- IC50 (C3H10T1/2 [13]): 15 µM

SMILES: C=CC(C)(O)CC[C@@]1(C)C2=C([C@H](OC(C)=O)[C@H](OC(C)=O)[C@H]1C)C(C)(C)CCC2 (some centres unmarked) [vitetrifolin D, reference compound]
- IC50 ([1]; read-out: Hh inhibition IC50): 20.2 µM

SMILES: C=C1C(=O)OC2CC1(C)C1C(=O)C3(O)OC14C(O)(CCC1C3CC=C3CC=CC(=O)C31C)C(=O)OC24C (centres unmarked) [physalin B (6]
- IC50 [1, 14]: 0.62 µM

SMILES: C[C@]12C(=O)C=CCC1=CC[C@@H]1[C@@H]2CC[C@@]2(O)C(=O)O[C@@]3(C)[C@H]4C[C@]5(C)[C@@H](CO[C@@]16O[C@]23[C@H]5C6=O)C(=O)O4 [physalin B (6), physalin B]
- IC50 [1, 14]: 0.62 µM
- IC50 (PANC1 [12]): 5.3 µM
- survival of C3H10T1/2 cells (C3H10T1/2 [13]): not significantly affected
- IC50 (C3H10T1/2 [13]): 17 µM

SMILES: C=C(C)[C@@H]1CC[C@]2(C(=O)O)CC[C@]3(C)[C@H](CC[C@@H]4[C@@]5(C)[C@H](C=O)[C@@H](O)C(C)(C)[C@@H]5CC[C@]43C)[C@@H]12 [colubrinic acid, reference compound]
- IC50 ([1]; read-out: Hh inhibition IC50): 38 µM
